Measured values taken from ChEMBL document CHEMBL5543173, “Discovery of a New Anti-Inflammatory Agent from Anemoside B4 Derivatives and Its Therapeutic Effect on Colitis by Targeting Pyruvate Carboxylase” (J Med Chem, 2024).
Calls of active or inactive are those of the source. The calls are words filed in the database; no cut-off is given here.

What was measured:
[1] = Stability in mouse plasma assessed as half life at 10 uM preincubated for 5 mins followed by NADPH addition measured for 10 to 480 mins by LC-MS/MS analysis; format: ADME, cell-free; conditions: time 15-485 min
Mus musculus [2] = test: Anti-colitis activity in ICR mouse model assessed as decrease in DSS-induced apoptosis in colon tissue at 60 mg/kg, IG treated for 8 days consecutively in presence of DADA by H and E staining based analysis; format: functional, organism-based; conditions: time 8.0 day
THP-1 [3] = test: Anti-inflammatory activity in human THP-1 cells assessed as decrease in LPS-induced IL-1beta level at 10 uM pretreated for 1 hr followed by LPS treatment for 24 hrs in presence of DADA by ELISA; format: functional, cell-based; conditions: time 25.0 hrs
THP-1 [4] = test: Anti-inflammatory activity in human THP-1 cells assessed as decrease in LPS-induced TNF-alpha level pretreated for 1 hr followed by LPS treatment for 24 hrs by ELISA; format: functional, cell-based; conditions: dose 0.1-10 µM, time 25.0 hrs
Mus musculus [5] = test: Anti-colitis activity in ICR mouse model assessed as reversal of DSS-induced spleen weight at 15 to 60 mg/kg, IG treated for 9 days consecutively; format: functional, organism-based; conditions: dose 15-60 mg/kg, time 9.0 day
Mus musculus [6] = test: Anti-colitis activity in ICR mouse model assessed as decrease in DSS-induced P65 phosphorylation in colon tissue at 60 mg/kg, IG treated for 8 days consecutively by Western blot analysis; format: functional, organism-based; conditions: time 8.0 day
[7] = Half life in colon of ICR mouse at 15 mg/kg, IG measured for 12 hrs by LC-MS/MS analysis; format: ADME, organism-based; conditions: po
[8] = Cmax in colon of ICR mouse at 15 mg/kg, IG measured for 12 hrs by LC-MS/MS analysis; format: ADME, organism-based; conditions: po
Mus musculus [9] = test: Anti-colitis activity in ICR mouse model assessed as decrease in DSS-induced DAI score at 60 mg/kg, IG treated for 8 days consecutively in presence of DADA; format: functional, organism-based; conditions: time 8.0 day
Mus musculus [10] = test: Anti-colitis activity in ICR mouse model assessed as increase in DSS-reduced pyruvate level at 60 mg/kg, IG treated for 8 days consecutively; format: functional, organism-based; conditions: time 8.0 day
THP-1 [11] = test: cells; conditions: Homo sapiens, THP-1, 24 h
Description: Cytotoxicity against human THP-1 cells assessed as inhibition of cell viability incubated for 24 hrs by CCK8 assay

[12] = Stability in mouse liver microsomes assessed as intrinsic clearance at 10 uM preincubated for 5 mins followed by NADPH addition measured for 10 to 480 mins by LC-MS/MS analysis; format: ADME, Microsome; conditions: time 15-485 min
THP-1 [13] = test: Anti-inflammatory activity in human THP-1 cells assessed as decrease in LPS-induced phosphorylated p65 level pretreated for 1 hr followed by LPS treatment for 6 hrs by Western blot analysis; format: functional, cell-based; conditions: dose 1-10 µM, time 7.0 hrs
[14] = Toxicity in ICR mouse assessed as change in lungs index at 300 mg/kg, IG measured for 9 days; format: organism-based; conditions: in vivo, po, 216 h, time 9 day
Mus musculus [15] = test: Anti-colitis activity in ICR mouse model of DSS-induced colitis assessed as effect on pyruvate carboxylase expression in colon tissue at 60 mg/kg, IG treated for 8 days consecutively by Western blot analysis; format: functional, organism-based; conditions: time 8.0 day
[16] = AUC (0 to t) in ICR mouse at 15 mg/kg, IG measured for 12 hrs by LC-MS/MS analysis; format: ADME, organism-based; conditions: in vivo, po
[17] = Toxicity in ICR mouse assessed as change in colon index at 300 mg/kg, IG measured for 9 days; format: organism-based; conditions: in vivo, po, 216 h, time 9 day
Mus musculus [18] = test: Anti-colitis activity in ICR mouse model assessed as decrease in DSS-induced epithelial cell injury in colon tissue at 15 to 60 mg/kg, IG treated for 8 days consecutively by H and E staining based analysis; format: functional, organism-based; conditions: dose 15-60 mg/kg, time 8.0 day
Mus musculus [19] = test: Anti-colitis activity in ICR mouse model assessed as decrease in DSS-induced body weight loss at 15 to 60 mg/kg, IG treated for 9 days consecutively; format: functional, organism-based; conditions: dose 15-60 mg/kg, time 9.0 day
Mus musculus [20] = test: Anti-colitis activity in ICR mouse model assessed as decrease in DSS-induced P65 phosphorylation in colon tissue at 60 mg/kg, IG treated for 8 days consecutively in presence of DADA by Western blot analysis; format: functional, organism-based; conditions: time 8.0 day
[21] = Volume of distribution in colon of ICR mouse at 15 mg/kg, IG measured for 12 hrs by LC-MS/MS analysis; format: ADME, organism-based; conditions: in vivo, po
[22] = MRT (0 to t) in […] administered as hydroxypropyl-beta-cyclodextrin at 20 mg/kg, IG measured for 12 hrs by LC-MS/MS analysis; format: ADME, organism-based; conditions: in vivo, po
Mus musculus [23] = test: Anti-colitis activity in ICR mouse model assessed as decrease in DSS-induced I-kappaB-alpha degradation in colon tissue at 60 mg/kg, IG treated for 8 days consecutively in presence of DADA by Western blot analysis; format: functional, organism-based; conditions: time 8.0 day
[24] = AUC (0 to t) in Sprague-Dawley rat administered as hydroxypropyl-beta-cyclodextrin at 20 mg/kg, IG measured for 12 hrs by LC-MS/MS analysis; format: ADME, organism-based; conditions: in vivo, po
THP-1 [25] = test: Anti-inflammatory activity in human THP-1 cells assessed as decrease in LPS-induced IL-6 level pretreated for 1 hr followed by LPS treatment for 24 hrs by ELISA; format: functional, cell-based; conditions: dose 0.1-10 µM, time 25.0 hrs
[26] = MRT (0 to t) in colon of ICR mouse at 15 mg/kg, IG measured for 12 hrs by LC-MS/MS analysis; format: ADME, organism-based; conditions: po
Mus musculus [27] = test: Anti-colitis activity in ICR mouse model assessed as decrease in DSS-induced DAI score at 15 to 60 mg/kg, IG treated for 8 days consecutively; format: functional, organism-based; conditions: dose 15-60 mg/kg, time 8.0 day
[28] = Tmax in ICR mouse at 15 mg/kg, IG measured for 12 hrs by LC-MS/MS analysis; format: ADME, organism-based; conditions: in vivo, po
THP-1 [29] = test: Anti-inflammatory activity in human THP-1 cells assessed as decrease in LPS-induced IL-6 level at 10 uM pretreated for 1 hr followed by LPS treatment for 24 hrs in presence of DADA by ELISA; format: functional, cell-based; conditions: time 25.0 hrs
[30] = Cmax in ICR mouse at 15 mg/kg, IG measured for 12 hrs by LC-MS/MS analysis; format: ADME, organism-based; conditions: in vivo, po
Mus musculus [31] = test: Anti-colitis activity in ICR mouse model assessed as […] DSS-induced colon length at 15 to 60 mg/kg, IG treated for 8 days consecutively; format: functional, organism-based; conditions: dose 15-60 mg/kg, time 8.0 day
Mus musculus [32] = test: Anti-colitis activity in ICR mouse model assessed as decrease in DSS-induced I-kappaB-alpha degradation in colon tissue at 60 mg/kg, IG treated for 8 days consecutively by Western blot analysis; format: functional, organism-based; conditions: time 8.0 day
THP-1 [33] = test: Anti-inflammatory activity in human THP-1 cells assessed as decrease in LPS-induced NLRP3 level at 1 to 10 uM pretreated for 1 hr followed by LPS/ATP treatment for 6 hrs by Western blot analysis; format: functional, cell-based; conditions: dose 1-10 µM, time 7.0 hrs
Mus musculus [34] = test: Anti-colitis activity in ICR mouse model assessed as decrease in DSS-induced apoptosis in colon tissue at 15 to 60 mg/kg, IG treated for 8 days consecutively by H and E staining based analysis; format: functional, organism-based; conditions: dose 15-60 mg/kg, time 8.0 day
Mus musculus [35] = test: Anti-colitis activity in ICR mouse model assessed as decrease in DSS-induced pyruvate carboxylase level at 60 mg/kg, IG treated for 8 days consecutively in presence of DADA; format: functional, organism-based; conditions: time 8.0 day
[36] = Toxicity in ICR mouse assessed as change in heart index at 300 mg/kg, IG measured for 9 days; format: organism-based; conditions: in vivo, po, 216 h, time 9 day

For C=C(C)[C@@H]1CC[C@]2(C(=O)NCCCCCC(=O)OC)CC[C@]3(C)[C@H](CC[C@@H]4[C@@]5(C)CC[C@H](O[C@@H]6OC[C@H](O)[C@H](O)[C@H]6O[C@@H]6O[C@@H](C)[C@H](O)[C@@H](O)[C@H]6O)[C@@](C)(CO)[C@@H]5CC[C@]43C)[C@@H]12, the half-life at 10 µM [1] was 1.14 min, the Activity (Mus musculus [2]) was “inactive” and the Activity (THP-1 [3]) was “inactive”. For the same compound, the Activity (THP-1 [4]) was “Dose-Dependent Effect”, the Activity (Mus musculus [5]) was “Active” and the Activity (Mus musculus [6]) was “Active”. The half-life [7] was 92.4 min, the Cmax [8] was 1110 ng/mL and the Activity (Mus musculus [9]) was “inactive”. The Activity (Mus musculus [10]) was “Active”, the IC50 (THP-1 [11]) was no less than 80 µM and the CLH [12] was 6.46 µL/min/mg. For the same compound, the Activity (THP-1 [13]) was “Dose-Dependent Effect”, the Activity [14] was “Non-Toxic” and the Activity (Mus musculus [15]) was “inactive”. The AUCt [16] was 108.09 ng·h/mL, the Activity [17] was “Non-Toxic” and the Activity (Mus musculus [18]) was “Active”. For the same compound, the Activity (Mus musculus [19]) was “Active”, the Activity (Mus musculus [20]) was “inactive” and the Vd [21] was 97.34 L/kg. The MRT last at 12 h [22] was 4.05 h, the Activity (Mus musculus [23]) was “inactive” and the AUCt [24] was 223.22 ng·h/mL. The Activity (THP-1 [25]) was “Dose-Dependent Effect”, the MRT last at 12 h [26] was 3.32 h and the Activity (Mus musculus [27]) was “Active”. For the same compound, the Tmax [28] was 57.6 min, the Activity (THP-1 [29]) was “inactive” and the Cmax [30] was 40.4 ng/mL. For the same compound, the Activity (Mus musculus [31]) was “Active”, the Activity (Mus musculus [32]) was “Active” and the Activity (THP-1 [33]) was “Active”. The Activity (Mus musculus [34]) was “Active”, the Activity (Mus musculus [35]) was “inactive” and the Activity [36] was “Non-Toxic”.
